Like-named read-outs stand apart in the source and are kept apart here. Bridge positions count the residues as written; N and C are the ends. Square brackets hold non-standard residues; d marks the D form. Peptide text beside a SMILES is read from it. 2Nal = N[C@@H](Cc1ccc2ccccc2c1)C(=O)O; Gly(N-2-aminoethyl) = NCCNCC(=O)O; Cit = NC(=O)NCCC[C@H](N)C(=O)O; Dab = NCC[C@H](N)C(=O)O
Legend:
[1] = tested on: human red blood cells (hRBC); assay: Hemolysis; format: cell-based
Summary of the method: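 Percent lysis taken as OD540 of peptide-treated sample over OD540 of the water/0.1% Triton X-100 full-lysis control, with PBS giving 0%. Peptides at 100 μM exposed to PBS-washed human RBCs (20% v/v) for 1 hour at 37° C. before centrifugation and 20-fold dilution of supernatant.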

in vitro [2] = format: in vitro ADME; details: plasma
Experimental: 405 μl of plasma/albumin solution were placed in a polypropylene (PP) tube and spiked with 45 μl of compound from a 100 μM solution B, derived from 135 μl of PBS and 15 μl of 1 mM peptide in PBS, pH 7.4. 150 μl aliquots were transferred into individual wells of the 10 kDa filter plate (Millipore MAPPB 1010 Biomax membrane). For “0 minutes controls”: 270 μl of PBS were placed in a PP tube and 30 μl of stock solution B was added and vortexed. 150 μl of control solution was placed into one well of the filter plate and serves as “filtered control”.
Further 150 μl of control solution were placed directly into a receiver well (reserved for filtrate) and serve as “not-filtered control”. The entire plate including evaporation lid was incubated for 60 min at 37° C. Plasma samples (rat plasma: Harlan Sera lab UK, human plasma: Blutspendezentrum Zürich) were centrifuged at least for 2 h at 4300 rpm (3500 g) and 15° C. in order to yield 100 μl filtrate. For “serum albumin”-samples (freshly prepared human albumin: Sigma A-4327, rat albumin: Sigma A-6272, all at 40 mg/ml concentration in PBS) approximately 1 hour of centrifugation is sufficient. The filtrates in the receiver PP plate were analysed by LC/MS as followes: Column: Jupiter C18 (Phenomenex), mobile phases: (A) 0.1% formic acid in water and (B) acetonitrile, gradient: 5%-100% (B) in 2 minutes, electrospray ionization, MRM detection (triple quadrupole). The peak areas were determined and triplicate values are averaged. The binding is expressed in percent of the (filtered and not-filtered time point 0 min) control 1 and 2 by: 100−(100*T60/T0). The average from these values is then calculated (see ref. 9 below).

in vitro [3] = details: human
CXCR4 = CXCR4 (Homo sapiens, UniProt P61073); assay: Ca2+-assay method 2 (Flexstation, SDF-1 induced calcium mobilization); format: cell-based; design: expressed in transfected cells; host or cells: mouse pre-B cell line 300-19; details: method 2 (Ex. 54-160), mouse pre-B cell line 300-19 with human CXCR4, 10 nM SDF-1
CXCR4, sequence (P61073 whole entry): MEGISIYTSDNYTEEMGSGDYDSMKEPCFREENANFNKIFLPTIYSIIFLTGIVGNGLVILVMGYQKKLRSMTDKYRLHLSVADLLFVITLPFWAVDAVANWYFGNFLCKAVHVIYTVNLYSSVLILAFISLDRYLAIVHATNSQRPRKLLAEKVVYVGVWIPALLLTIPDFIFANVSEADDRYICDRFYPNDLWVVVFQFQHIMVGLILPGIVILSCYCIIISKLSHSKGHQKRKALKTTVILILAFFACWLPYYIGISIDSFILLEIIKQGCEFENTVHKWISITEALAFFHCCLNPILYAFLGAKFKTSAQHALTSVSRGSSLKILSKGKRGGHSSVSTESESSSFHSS

[4] = read-out: IC50 (nM) Ca^2+ assay
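Throughout, for GI50: MTT reduction read as absorbance at 595 nm, blank-corrected and expressed as percent growth relative to the time-zero cell reading, triplicate wells per concentration.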

| Structure (SMILES) | Hemolysis at 100 μM [1] [%] | half-life at 10 μM (in vitro [2]; human) [h] | half-life at 10 μM (in vitro [2]; rat) [h] | GI50 at 48 h (in vitro [3]) [nM] | IC50 (CXCR4; [4]) [nM] | Hemolysis at 100 μM ([1]; percent hemolysis, 100 μM peptide, 20% v/v hRBC, 1 hour at 37° C.) [%] | IC50 (CXCR4; IC50 (nM) Ca^2+ assay) [nM] |
| --- | --- | --- | --- | --- | --- | --- | --- |
| N=C(N)NCCC[C@@H]1NC(=O)[C@@H]2CSSC[C@H](NC(=O)[C@H](Cc3ccc4ccccc4c3)NC(=O)[C@H](CCCNC(=N)N)NC(=O)[C@H](CCCNC(=N)N)NC(=O)[C@H]3CCCN3C(=O)CNC1=O)C(=O)N[C@@H](Cc1ccc(O)cc1)C(=O)N[C@@H](CCC(N)=O)C(=O)N[C@@H](CCC(N)=O)C(=O)N1CCC[C@@H]1C(=O)N1CCC[C@H]1C(=O)N[C@@H](Cc1ccc(O)cc1)C(=O)N[C@@H](CCCNC(=N)N)C(=O)N[C@@H](CCCNC(N)=O)C(=O)N2 [Ex. 60] (cyclo(YR[Cit]CRG[dP]RR[2Nal]CYQQ[dP]P); disulfide 4-11) | 0.1 | > 5 | > 5 | 62000 | 0.18 |  |  |
| N=C(N)NCCC[C@@H]1NC(=O)[C@@H]2CSSC[C@H](NC(=O)[C@H](Cc3ccc4ccccc4c3)NC(=O)[C@H](CCCNC(=N)N)NC(=O)[C@H](CCCNC(=N)N)NC(=O)[C@H]3CCCN3C(=O)CNC1=O)C(=O)N[C@@H](Cc1ccc(O)cc1)C(=O)N[C@@H](CCC(N)=O)C(=O)N[C@@H](CCC(=O)O)C(=O)N1CCC[C@@H]1C(=O)N1CCC[C@H]1C(=O)N[C@@H](Cc1ccc(O)cc1)C(=O)N[C@@H](CCCNC(=N)N)C(=O)N[C@@H](CCCNC(N)=O)C(=O)N2 [Ex. 61] (cyclo(YR[Cit]CRG[dP]RR[2Nal]CYQE[dP]P); disulfide 4-11) | 0.3 | 4.55 | > 5 | > 100000 | 4.1 |  |  |
| N=C(N)NCCC[C@@H]1NC(=O)[C@@H]2CSSC[C@H](NC(=O)[C@H](Cc3ccc4ccccc4c3)NC(=O)[C@H](CCCNC(=N)N)NC(=O)[C@H](CCCNC(=N)N)NC(=O)[C@H]3CCCN3C(=O)CNC1=O)C(=O)N[C@@H](Cc1ccc(O)cc1)C(=O)N[C@@H](CCC(N)=O)C(=O)N[C@@H](CCCCN)C(=O)N1CCC[C@@H]1C(=O)N1CCC[C@H]1C(=O)N[C@@H](CCC(=O)O)C(=O)N[C@@H](CCCNC(=N)N)C(=O)N[C@@H](CCCNC(N)=O)C(=O)N2 [Ex. 68] (cyclo(ER[Cit]CRG[dP]RR[2Nal]CYQK[dP]P); disulfide 4-11) | 0.1 | 2.12 | 1.35 | > 100000 | 1.1 |  |  |
| C[C@@H](O)[C@@H]1NC(=O)[C@H](Cc2c[nH]cn2)NC(=O)[C@H](Cc2ccc(O)cc2)NC(=O)[C@@H]2CCCN2C(=O)[C@H]2CCCN2C(=O)[C@H](CCCCN)NC(=O)[C@H](CCC(N)=O)NC(=O)[C@H](Cc2ccc(O)cc2)NC(=O)[C@@H]2CSSC[C@H](NC1=O)C(=O)N[C@@H](CCCNC(=N)N)C(=O)NCC(=O)N1CCC[C@@H]1C(=O)N[C@@H](CCCNC(=N)N)C(=O)N[C@@H](CCCNC(=N)N)C(=O)N[C@@H](Cc1c[nH]c3ccccc13)C(=O)N2 [Ex. 120] (cyclo(YHTCRG[dP]RRWCYQK[dP]P); disulfide 4-11) | 0 | 0.65 | 2.9 | 78000 |  |  |  |
| N=C(N)NCCC[C@@H]1NC(=O)[C@@H]2CSSC[C@H](NC(=O)[C@H](Cc3c[nH]c4ccccc34)NC(=O)[C@H](CCCNC(=N)N)NC(=O)[C@H](Cc3c[nH]cn3)NC(=O)[C@H]3CCCN3C(=O)CNC1=O)C(=O)N[C@@H](Cc1ccc(O)cc1)C(=O)N[C@@H](CCCNC(N)=O)C(=O)N[C@@H](CCCCN)C(=O)N1CCC[C@@H]1C(=O)N1CCC[C@H]1C(=O)N[C@@H](Cc1ccc(O)cc1)C(=O)N[C@@H](CCCNC(=N)N)C(=O)N[C@@H](CCCNC(N)=O)C(=O)N2 [Ex. 137] (cyclo(YR[Cit]CRG[dP]HRWCY[Cit]K[dP]P); disulfide 4-11) | 0.5 |  |  | 79000 | 1.28 |  |  |
| N=C(N)NCCC[C@@H]1NC(=O)[C@H](CCCNC(=N)N)NC(=O)[C@H]2CCCN2C(=O)CNC(=O)CN(CCN)C(=O)[C@@H]2CSSC[C@H](NC(=O)[C@H](Cc3ccc4ccccc4c3)NC1=O)C(=O)N[C@@H](Cc1ccc(O)cc1)C(=O)N[C@@H](CCCNC(N)=O)C(=O)N[C@@H](CCCCN)C(=O)N1CCC[C@@H]1C(=O)N1CCC[C@H]1C(=O)N[C@@H](Cc1ccc(O)cc1)C(=O)N[C@@H](CCCNC(=N)N)C(=O)N[C@@H](CCCNC(N)=O)C(=O)N2 [Ex. 138] (cyclo(YR[Cit]C[Gly(N-2-aminoethyl)]G[dP]RR[2Nal]CY[Cit]K[dP]P); disulfide 4-11) | 0 |  |  | 18000 | 63 |  |  |
| C[C@@H](O)[C@@H]1NC(=O)[C@H](CCCNC(=N)N)NC(=O)[C@H](Cc2ccc(O)cc2)NC(=O)[C@@H]2CCCN2C(=O)[C@H]2CCCN2C(=O)[C@H](CCCCN)NC(=O)[C@H](CCC(N)=O)NC(=O)[C@H](Cc2ccc(O)cc2)NC(=O)[C@@H]2CSSC[C@H](NC1=O)C(=O)N[C@@H](CCCNC(=N)N)C(=O)NCC(=O)N1CCC[C@@H]1C(=O)N[C@@H](CCCNC(=N)N)C(=O)N[C@@H](CCCNC(=N)N)C(=O)N[C@@H](Cc1ccc(O)cc1)C(=O)N2 [Ex. 145] (cyclo(YRTCRG[dP]RRYCYQK[dP]P); disulfide 4-11) | 0 |  |  | 97000 | 0.38 |  |  |
| N=C(N)NCCC[C@@H]1NC(=O)[C@@H]2CSSC[C@H](NC(=O)[C@H](Cc3ccc(O)cc3)NC(=O)[C@H](CCCNC(=N)N)NC(=O)[C@H](CCCNC(=N)N)NC(=O)[C@H]3CCCN3C(=O)CNC1=O)C(=O)N[C@@H](Cc1ccc(O)cc1)C(=O)N[C@@H](CCC(N)=O)C(=O)N[C@@H](CCCCN)C(=O)N1CCC[C@@H]1C(=O)N1CCC[C@H]1C(=O)N[C@@H](Cc1ccc(O)cc1)C(=O)N[C@@H](CCCNC(=N)N)C(=O)N[C@@H](Cc1ccc(O)cc1)C(=O)N2 [Ex. 148] (cyclo(YRYCRG[dP]RRYCYQK[dP]P); disulfide 4-11) | 71 |  |  | 46000 | 0.65 |  |  |
| N=C(N)NCCC[C@@H]1NC(=O)[C@@H]2CSSC[C@H](NC(=O)[C@H](Cc3ccc(O)cc3)NC(=O)[C@H](CCCNC(=N)N)NC(=O)[C@H](CCCNC(=N)N)NC(=O)[C@H]3CCCN3C(=O)CNC1=O)C(=O)N[C@@H](Cc1ccc(O)cc1)C(=O)N[C@@H](CCC(N)=O)C(=O)N[C@@H](CCCCN)C(=O)N[C@H](CCC(N)=O)C(=O)N1CCC[C@H]1C(=O)N[C@@H](Cc1ccc(O)cc1)C(=O)N[C@@H](CCCNC(=N)N)C(=O)N[C@@H](CCCNC(N)=O)C(=O)N2 [Ex. 149] (cyclo(YR[Cit]CRG[dP]RRYCYQK[dQ]P); disulfide 4-11) |  |  |  | > 100000 |  | 0 | 1 |
| N=C(N)NCCC[C@@H]1NC(=O)[C@@H]2CCC(=O)NCC[C@H](NC(=O)[C@H](Cc3c[nH]c4ccccc34)NC(=O)[C@H](CCCNC(=N)N)NC(=O)[C@H](CCCNC(=N)N)NC(=O)[C@H]3CCCN3C(=O)CNC1=O)C(=O)N[C@@H](Cc1ccc(O)cc1)C(=O)N[C@@H](CCCNC(N)=O)C(=O)N[C@@H](CCCCN)C(=O)N1CCC[C@@H]1C(=O)N1CCC[C@H]1C(=O)N[C@@H](Cc1ccc(O)cc1)C(=O)N[C@@H](CCCNC(=N)N)C(=O)N[C@@H](CCCNC(N)=O)C(=O)N2 [Ex. 153] (cyclo(YR[Cit]ERG[dP]RRW[Dab]Y[Cit]K[dP]P); lactam 4-11) | 1.7 |  |  | 43000 | 21.9 |  |  |
| N=C(N)NCCC[C@@H]1NC(=O)[C@@H]2CSSC[C@H](NC(=O)[C@H](Cc3ccc4ccccc4c3)NC(=O)[C@H](CCCNC(=N)N)NC(=O)[C@H](CCCNC(=N)N)NC(=O)[C@H]3CCCN3C(=O)CNC1=O)C(=O)N[C@@H](Cc1ccc(O)cc1)C(=O)N[C@@H](CCCNC(=N)N)C(=O)N[C@@H](CCCCN)C(=O)N1CCC[C@@H]1C(=O)N1CCC[C@H]1C(=O)N[C@@H](Cc1ccc(O)cc1)C(=O)N[C@@H](CCCNC(=N)N)C(=O)N[C@@H](CCCNC(N)=O)C(=O)N2 [compound 57] (cyclo(YR[Cit]CRG[dP]RR[2Nal]CYRK[dP]P); disulfide 4-11) | 0.1 |  |  | 33000 | 4.2 |  |  |
| N=C(N)NCCC[C@@H]1NC(=O)[C@@H]2CSSC[C@H](NC(=O)[C@H](Cc3ccc4ccccc4c3)NC(=O)[C@H](CCCNC(=N)N)NC(=O)[C@H](CCCNC(=N)N)NC(=O)[C@H]3CCCN3C(=O)CNC1=O)C(=O)N[C@@H](Cc1ccc(O)cc1)C(=O)N[C@@H](CCC(N)=O)C(=O)N[C@@H](CCCCN)C(=O)N1CCC[C@@H]1C(=O)N1CCC[C@H]1C(=O)N[C@@H](CCCNC(=N)N)C(=O)N[C@@H](CCCNC(=N)N)C(=O)N[C@@H](CCCNC(N)=O)C(=O)N2 [compound 63] (cyclo(RR[Cit]CRG[dP]RR[2Nal]CYQK[dP]P); disulfide 4-11) | 0.2 |  |  | 58000 | 2 |  |  |
